From ChEMBL document CHEMBL2163286, “1,2,3,4-tetrahydroquinoline-based selective human neuronal nitric oxide synthase (nNOS) inhibitors: lead optimization studies resulting in the identification of N-(1-(2-(methylamino)ethyl)-1,2,3,4-tetrahydroquinolin-6-yl)thiophene-2-carboximidamide as a preclinical development candidate” (J Med Chem, 2012)

Tests used:
[1] = biological target: Nitric oxide synthase, inducible (Homo sapiens, UniProt P35228); assay: Inhibition of human recombinant iNOS expressed in Sf9 cells assessed as reduction in conversion of [3H]L-arginine to [3H]L-citrulline preincubated for 15 mins by radiometric method
Nitric oxide synthase 1 = Nitric oxide synthase 1 (Homo sapiens, UniProt P29475); assay: Inhibition of human nNOS expressed in Sf9 cells assessed as reduction in conversion of [3H]L-arginine to [3H]L-citrulline preincubated for 15 mins by radiometric method
Nitric oxide synthase 3 = biological target: T1, Nitric oxide synthase 3 (Homo sapiens, UniProt P29474); assay: Inhibition of human eNOS expressed in Sf9 cells assessed as reduction in conversion of [3H]L-arginine to [3H]L-citrulline preincubated for 15 mins by radiometric method
T1 sequence (P29474 whole entry): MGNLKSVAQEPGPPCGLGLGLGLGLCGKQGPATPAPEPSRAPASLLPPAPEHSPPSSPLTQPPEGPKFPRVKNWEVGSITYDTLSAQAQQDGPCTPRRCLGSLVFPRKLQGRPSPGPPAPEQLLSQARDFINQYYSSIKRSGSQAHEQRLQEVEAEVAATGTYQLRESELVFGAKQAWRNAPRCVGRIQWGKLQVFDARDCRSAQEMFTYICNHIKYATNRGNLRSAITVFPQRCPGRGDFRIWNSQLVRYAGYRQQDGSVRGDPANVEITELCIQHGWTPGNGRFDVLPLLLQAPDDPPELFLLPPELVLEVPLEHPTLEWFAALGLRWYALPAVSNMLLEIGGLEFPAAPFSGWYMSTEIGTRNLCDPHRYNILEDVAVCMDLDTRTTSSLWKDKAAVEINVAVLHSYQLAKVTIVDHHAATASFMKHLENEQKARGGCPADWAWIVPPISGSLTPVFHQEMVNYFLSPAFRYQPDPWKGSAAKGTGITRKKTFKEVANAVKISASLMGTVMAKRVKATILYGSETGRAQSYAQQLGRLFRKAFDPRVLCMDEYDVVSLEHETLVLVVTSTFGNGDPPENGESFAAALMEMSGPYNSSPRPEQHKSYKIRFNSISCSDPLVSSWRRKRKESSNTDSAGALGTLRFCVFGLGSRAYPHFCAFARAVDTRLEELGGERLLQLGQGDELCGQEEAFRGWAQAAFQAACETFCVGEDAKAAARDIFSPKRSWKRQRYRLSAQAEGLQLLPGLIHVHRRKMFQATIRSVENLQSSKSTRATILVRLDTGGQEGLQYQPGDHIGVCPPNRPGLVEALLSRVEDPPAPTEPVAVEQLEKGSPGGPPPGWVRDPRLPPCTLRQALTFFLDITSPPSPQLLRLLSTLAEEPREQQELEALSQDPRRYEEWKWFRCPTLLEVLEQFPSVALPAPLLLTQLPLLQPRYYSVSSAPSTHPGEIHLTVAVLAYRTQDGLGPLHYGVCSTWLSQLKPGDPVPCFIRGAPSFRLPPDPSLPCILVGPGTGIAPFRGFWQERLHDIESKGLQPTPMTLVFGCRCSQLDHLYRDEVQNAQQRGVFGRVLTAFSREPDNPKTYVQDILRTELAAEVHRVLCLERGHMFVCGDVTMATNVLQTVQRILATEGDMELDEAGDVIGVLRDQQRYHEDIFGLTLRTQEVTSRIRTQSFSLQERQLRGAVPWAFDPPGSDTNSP

[2] = biological target: Voltage-gated inwardly rectifying potassium channel KCNH2 (Homo sapiens, UniProt Q12809); assay: Inhibition of human ERG expressed in HEK293 cells at -80 mV holding potential assessed as reduction in tail current amplitude by conventional patch clamp assay; format: cell-based
Voltage-gated inwardly rectifying potassium channel KCNH2, sequence (Q12809 whole entry): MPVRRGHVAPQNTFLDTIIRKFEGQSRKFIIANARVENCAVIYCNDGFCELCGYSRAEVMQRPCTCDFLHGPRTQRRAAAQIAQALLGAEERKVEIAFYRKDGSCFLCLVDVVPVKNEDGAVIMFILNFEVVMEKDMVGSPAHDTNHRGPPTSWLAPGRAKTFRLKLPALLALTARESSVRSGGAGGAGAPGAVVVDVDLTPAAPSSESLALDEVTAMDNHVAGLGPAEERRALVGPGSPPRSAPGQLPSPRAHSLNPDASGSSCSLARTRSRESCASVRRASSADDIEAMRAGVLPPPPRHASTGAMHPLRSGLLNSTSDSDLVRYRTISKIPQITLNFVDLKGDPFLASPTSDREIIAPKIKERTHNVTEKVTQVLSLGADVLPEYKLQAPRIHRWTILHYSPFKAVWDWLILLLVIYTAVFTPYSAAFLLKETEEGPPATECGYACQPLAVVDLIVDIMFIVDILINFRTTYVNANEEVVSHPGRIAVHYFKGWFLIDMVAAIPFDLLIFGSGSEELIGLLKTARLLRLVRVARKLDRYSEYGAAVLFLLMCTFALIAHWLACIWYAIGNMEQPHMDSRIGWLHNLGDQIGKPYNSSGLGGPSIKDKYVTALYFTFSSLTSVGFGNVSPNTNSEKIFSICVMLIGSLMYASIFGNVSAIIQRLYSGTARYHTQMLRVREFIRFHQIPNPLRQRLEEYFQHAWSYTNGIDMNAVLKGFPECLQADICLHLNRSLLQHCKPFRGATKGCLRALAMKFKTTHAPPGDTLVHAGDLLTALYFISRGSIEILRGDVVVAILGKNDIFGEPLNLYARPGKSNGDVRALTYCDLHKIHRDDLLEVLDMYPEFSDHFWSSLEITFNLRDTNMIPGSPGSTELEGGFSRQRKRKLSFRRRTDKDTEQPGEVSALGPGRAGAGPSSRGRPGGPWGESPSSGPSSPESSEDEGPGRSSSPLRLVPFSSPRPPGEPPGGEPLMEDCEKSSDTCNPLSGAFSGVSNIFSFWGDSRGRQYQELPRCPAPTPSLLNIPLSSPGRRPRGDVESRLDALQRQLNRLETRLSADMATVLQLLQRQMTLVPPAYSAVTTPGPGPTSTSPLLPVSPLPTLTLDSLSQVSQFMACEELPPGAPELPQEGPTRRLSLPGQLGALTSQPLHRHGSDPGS

Nitric oxide synthase 1, sequence (P29475 whole entry): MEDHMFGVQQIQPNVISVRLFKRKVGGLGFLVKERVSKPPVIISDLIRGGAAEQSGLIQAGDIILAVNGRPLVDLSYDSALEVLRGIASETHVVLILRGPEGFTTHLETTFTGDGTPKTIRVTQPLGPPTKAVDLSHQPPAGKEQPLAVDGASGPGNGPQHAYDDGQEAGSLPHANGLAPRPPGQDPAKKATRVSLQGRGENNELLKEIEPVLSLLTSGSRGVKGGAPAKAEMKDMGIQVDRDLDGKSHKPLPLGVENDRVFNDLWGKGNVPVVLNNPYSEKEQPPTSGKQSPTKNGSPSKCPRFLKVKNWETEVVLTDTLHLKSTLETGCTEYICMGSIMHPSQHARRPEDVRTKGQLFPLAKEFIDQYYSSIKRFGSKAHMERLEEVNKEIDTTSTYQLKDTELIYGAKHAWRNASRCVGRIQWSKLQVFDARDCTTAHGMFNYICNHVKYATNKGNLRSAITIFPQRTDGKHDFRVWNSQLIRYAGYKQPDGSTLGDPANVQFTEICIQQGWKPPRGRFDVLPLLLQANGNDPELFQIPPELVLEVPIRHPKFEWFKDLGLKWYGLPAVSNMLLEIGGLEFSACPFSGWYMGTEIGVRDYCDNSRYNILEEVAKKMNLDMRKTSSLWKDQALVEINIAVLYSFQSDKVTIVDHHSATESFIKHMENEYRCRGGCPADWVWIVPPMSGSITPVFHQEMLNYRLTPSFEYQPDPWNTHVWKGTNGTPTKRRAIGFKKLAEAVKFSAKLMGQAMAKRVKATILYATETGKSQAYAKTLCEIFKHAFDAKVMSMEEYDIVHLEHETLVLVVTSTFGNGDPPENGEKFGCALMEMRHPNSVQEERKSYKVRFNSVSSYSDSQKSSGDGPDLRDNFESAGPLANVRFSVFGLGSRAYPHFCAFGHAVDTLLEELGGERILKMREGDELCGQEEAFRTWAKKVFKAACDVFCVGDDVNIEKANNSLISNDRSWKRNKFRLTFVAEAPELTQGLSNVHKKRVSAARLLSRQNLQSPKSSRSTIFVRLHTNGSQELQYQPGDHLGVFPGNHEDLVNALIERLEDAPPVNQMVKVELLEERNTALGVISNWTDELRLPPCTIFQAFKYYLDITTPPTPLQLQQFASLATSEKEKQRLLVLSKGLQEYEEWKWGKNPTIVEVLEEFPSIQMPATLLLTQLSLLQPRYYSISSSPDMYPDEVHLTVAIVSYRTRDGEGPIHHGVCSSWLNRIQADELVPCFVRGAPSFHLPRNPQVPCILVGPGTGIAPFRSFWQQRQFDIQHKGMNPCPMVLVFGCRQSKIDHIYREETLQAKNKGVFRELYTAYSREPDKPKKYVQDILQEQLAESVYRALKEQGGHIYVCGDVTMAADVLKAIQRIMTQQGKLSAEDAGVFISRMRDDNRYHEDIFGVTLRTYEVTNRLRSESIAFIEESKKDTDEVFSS
Nitric oxide synthase, inducible, sequence (P35228 whole entry): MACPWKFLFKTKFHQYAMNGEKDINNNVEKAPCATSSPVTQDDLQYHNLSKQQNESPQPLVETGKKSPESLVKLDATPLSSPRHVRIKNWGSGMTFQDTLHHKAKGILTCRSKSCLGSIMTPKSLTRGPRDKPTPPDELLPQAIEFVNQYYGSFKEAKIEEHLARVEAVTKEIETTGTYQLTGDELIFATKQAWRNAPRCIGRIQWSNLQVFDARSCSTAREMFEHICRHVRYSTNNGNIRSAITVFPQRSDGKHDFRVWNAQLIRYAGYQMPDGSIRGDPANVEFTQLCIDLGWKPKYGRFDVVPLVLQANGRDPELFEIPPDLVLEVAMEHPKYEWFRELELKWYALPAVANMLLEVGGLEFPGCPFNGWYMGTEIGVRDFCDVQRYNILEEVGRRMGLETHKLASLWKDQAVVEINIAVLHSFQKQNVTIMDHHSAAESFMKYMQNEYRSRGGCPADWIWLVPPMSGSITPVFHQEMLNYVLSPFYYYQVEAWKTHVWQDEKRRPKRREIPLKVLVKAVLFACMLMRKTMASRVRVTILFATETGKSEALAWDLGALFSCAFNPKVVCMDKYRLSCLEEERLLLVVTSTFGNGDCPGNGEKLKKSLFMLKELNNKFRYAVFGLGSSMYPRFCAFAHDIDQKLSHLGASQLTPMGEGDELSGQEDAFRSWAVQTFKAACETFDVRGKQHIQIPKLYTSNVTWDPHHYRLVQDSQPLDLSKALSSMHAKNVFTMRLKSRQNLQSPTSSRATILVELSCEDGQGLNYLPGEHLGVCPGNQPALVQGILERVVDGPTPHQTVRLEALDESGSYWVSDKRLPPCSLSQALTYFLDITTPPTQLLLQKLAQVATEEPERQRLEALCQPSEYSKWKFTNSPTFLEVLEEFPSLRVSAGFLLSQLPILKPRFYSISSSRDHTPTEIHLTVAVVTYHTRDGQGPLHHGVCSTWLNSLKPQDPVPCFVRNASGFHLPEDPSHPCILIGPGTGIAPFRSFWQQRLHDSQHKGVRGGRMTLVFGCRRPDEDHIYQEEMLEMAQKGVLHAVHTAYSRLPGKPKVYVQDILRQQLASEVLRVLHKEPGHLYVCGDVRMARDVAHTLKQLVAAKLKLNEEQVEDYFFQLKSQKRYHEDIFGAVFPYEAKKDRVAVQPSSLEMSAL

Row | SMILES | IC50 [1] | IC50 (Nitric oxide synthase 1) | IC50 (Nitric oxide synthase 3) | IC50 [2]
1 | CNCCN1CCCc2cc(NC(=N)c3cccs3)ccc21 | – | 0.176 µM | – | –
2 | CCNCCN1CCCc2cc(NC(=N)c3cccs3)ccc21 | > 100 µM | 0.139 µM | 46.5 µM | > 30 µM
3 | N=C(Nc1ccc2c(c1)CCCN2C1CCNC1)c1cccs1 (racemic) | – | – | – | > 30 µM

The remaining compounds from weak to strong by IC50 (Nitric oxide synthase 1), led by results:

Row | IC50 [1] | IC50 (Nitric oxide synthase 1) | IC50 (Nitric oxide synthase 3) | SMILES | IC50 [2]
4 | > 100 µM | 0.169 µM | 39.2 µM | N=C(Nc1ccc2c(c1)CCCN2CCCNCCO)c1cccs1 | > 30 µM
5 | > 100 µM | 0.133 µM | – | CN(CCO)CCN1CCCc2cc(NC(=N)c3cccs3)ccc21 | –
6 | 73 µM | 0.115 µM | 32.9 µM | N=C(Nc1ccc2c(c1)CCCN2CCNCCO)c1cccs1 | > 30 µM
